Measurements as given in US12491187B2, “Use of MCT1 inhibitors to enhance insulin sensitivity” (H. LEE MOFFIT CANCER CENTER AND RESEARCH INSTITUTE, INC., priority 2022, dated 2025).

How the values were obtained:
Type in all cases: cell-based, murine
[1] = tested on: differentiated 3T3-L1 cells; experiment: Lipolysis (intracellular glycerol, Glycerol-Glo); details: 1 μM, all time points measured (24, 48, 72 hr)
Procedure: Lipolysis (Intracellular Glycerol): 3T3-L1 cells were seeded, differentiated and treated with or without AZD3965 (1 μM) for up to 72 hr in clear 96 well plates (Corning®). After media removal and washing cells with PBS, the Glycerol-Glo™ (Promega®) assay kit was used to assess changes in lipolysis through the quantification of intracellular glycerol according to the manufacturer's instructions. A luminescent signal is produced that is proportional to the amount of glycerol within the sample Luminescence was read on a spectrophotometer (FlexStation 3; Molecular Devices).

3T3-L1-shScramble cells = experiment: Glucose uptake (Glucose Uptake-Glo) in shScramble control cells; details: 1 μM for 72 hr, 175 nM insulin
Procedure: Cell Line Development: Lenti plasmid vectors containing shRNA targeting MCT1 or a shScramble sequence were purchased from Genocopia. Lentiviral particles were produced using HEK293T cells and a third-generation packaging system, MISSION Lentiviral Packaging Mix, as per manufacturer's (Sigma-Aldrich) recommendations. To generate shMCT1 cells, 3T3-L1 cells were seeded and transduced with optimized titers of freshly harvested lentivirus. 12 hr after transduction, medium was changed, and cells were allowed to recover for 24 h before being placed under antibiotic selection (2 μg/mL puromycin [Clontech]) for 3-6 days. Cells surviving antibiotic selection were harvested for both reverse transcription quantitative chain polymerase reaction (RT-qPCR) and immunoblotting analyses.
Glucose Uptake: 3T3-L1 cells were seeded and differentiated in clear bottom 96-well plates (Corning®). After differentiation, cells were treated with or without […] AZD3965 for 24 hr, 48 hr or 72 hr as illustrated in FIG. 7 (schematic outline of experimental procedure). The cells were incubated in serum free media the night before performing the assay. […] Glucose Uptake was measured using the Glucose Uptake-Glo™ Assay (Promega®) according to the manufacturer's protocol. The data generated were normalized by dividing the relative luminescence units (RLU) measured in insulin stimulated wells by vehicle treated controls. […]

[2] = tested on: differentiated 3T3-L1 adipocytes; experiment: Intracellular lactate (Lactate-Glo); details: 1 μM
Procedure: Intracellular Lactate: Intracellular lactate was measured using the Lactate-Glo™ Assay Kit (Promega®) according to the manufacturer's instructions. 3T3-L1 cells were seeded and differentiated in white clear bottom 96-well plates (Corning®). After differentiation, cells were treated with compound or vehicle as indicated. Following 15 min, 30 min, 1 hr, 4 hr, 8 hr or 24 hr incubation with […] AZD6965, media was removed, and cells were lysed. Lysates were then subjected to a proprietary enzymatic reaction coupling lactate oxidation and NADH production with a bioluminescent detection system supplied by the Lactate-Glo™ Assay kit, and luminescence was read on a spectrophotometer (FlexStation 3; Molecular Devices). The data generated were normalized by dividing the relative luminescence units (RLU) collected for each experimental condition by the average RLU of vehicle control.

[3] = tested on: differentiated 3T3-L1 adipocytes; experiment: Intracellular pyruvate (Amplite fluorimetric assay); details: 1 μM
Procedure: Intracellular Pyruvate: Intracellular pyruvate was measured using the Amplite™ Fluorimetric Pyruvate Assay Kit (AAT Bioquest) according to the manufacturer's instructions. 3T3-L1 cells were seeded and differentiated in white clear bottom 96-well plates (Corning®). After differentiation, cells were treated with compound or vehicle as indicated. Following 15 min, 30 min, 1 hr, 4 hr, 8 hr or 24 hr incubation with 1 μM AZD6965, media was removed, and cells were lysed with ReadiUse™ mammalian cell lysis buffer (AAT Bioquest). Lysates were then subjected to an enzyme-coupled reaction with the Quest Fluor™ Pyruvate Sensor resulting in an […] detected at 575 nm which is proportional to the quantity of pyruvate within the sample. Absorbance was read on a spectrophotometer (FlexStation 3; Molecular Devices).

[4] = tested on: differentiated 3T3-L1 adipocytes; experiment: Ki67 expression (confocal microscopy and quantification); details: 1 μM, 24 hr, vs untreated adipocytes
Procedure: Confocal Microscopy: Cells were seeded and differentiated on 8 chamber μ-Slides (Ibidi®). Differentiated cells treated with vehicle (DMSO) or 1 μM AZD3965 for 24 hr were fixed in 4% PFA for 10 min at room temperature, permeabilized with 0.1% Triton™ X-100 in PBS and blocked with 3% BSA in PBS for an hr. Cells were subsequently incubated with Ki67 antibody (NBP2-22112, Novus Biologicals) at a 1:500 dilution in PBS 3% BSA overnight at 4° C. Cells were washed with PBS and incubated with goat anti-rabbit Alexa Fluor 647 secondary antibody (Invitrogen) at 1:2000 dilution in PBS 3% BSA for 1 hr. Lipid droplets were stained with BODIPY® (Invitrogen) for 20 min at room temperature according to the manufacturer's recommendations. Nuclei were stained for 20 min at room temperature with 4,6-diamidino-2-phenylindole (DAPI) (Sigma-Aldrich) in PBS 3% BSA, diluted at 1:5000 from a 1 mg/ml stock. Images were acquired on the Leica TCS SP8 laser scanning confocal microscope Leica Microsystems) at a magnification of 630× with 3× zoom. Ki67 Expression Quantification: Slides were prepared as outlined in ‘Confocal Microscopy’, After staining, Ki67 expression was imaged and analyzed on the Cytation 5 Cell Imaging Multi-Mode reader (BioTek Instruments) through the measure of fluorescence intensity and deep red fluorescent (Alexa647) positive pixels. […]

[5] = tested on: differentiated 3T3-L1 (WT) cells; details: mouse
Procedure: Cell Viability: 3T3-L1 cells were seeded and differentiated in white, clear bottom, 384-well plates (Corning®). Following differentiation, adipocytes were treated for 24, 48 or 72 hr with varying concentrations of AZD3965 ranging from 0.1 nM to 10 µM. Following the indicated incubation period, cells were assayed with CytoTox-Glo™ (Promega®) according the manufacturer's instructions to assess cell toxicity. Briefly, this assay is a luminescent cytotoxicity kit that measures the relative number of dead cells in a population through the addition of a cell impermeant luminogenic substrate which luminesces in the presence of ‘dead-cell protease’, a protein released from membrane-compromised, dead cells. Luminescence was read on a spectrophotometer (FlexStation 3; Molecular Devices). The data generated were normalized by dividing the relative luminescence units (RLU) collected for each experimental condition by the average RLU of ‘basal’ untreated cells considered to be 100% viable.

Cc1[nH]nc(C(F)(F)F)c1Cc1sc2c(c1C(=O)N1C[C@](C)(O)CO1)c(=O)n(C)c(=O)n2C(C)C [AZD3965, 5-[[(4S)-4-hydroxy-4-methyl-2-isoxazolidinyl]carbonyl]-3-methyl-1-(1-methylethyl)-6-[[5-methyl-3-(trifluoromethyl)-1H-pyrazol-4-yl]methyl]-thieno[2,3-d]pyrimidine-2,4 (1H, 3H)-dione]
intracellular glycerol levels (lipolysis) [1]: significantly increased | insulin-stimulated glucose uptake (3T3-L1-shScramble cells): augmented | intracellular lactate levels relative to basal ([2]; after 24 hr): approximately 2 fold | intracellular lactate ([2]; within 15 minutes, maintained through first 4 hr): significant increase | intracellular pyruvate levels ([3]; after 24 hr): not significantly altered | intracellular pyruvate ([3]; first 8 hr of treatment): significant increase | expression of Ki67 [4]: significant increase | cytotoxicity / cell viability [5]: not due to AZD3965-induced cytotoxicity
